Results reported in article PMC8116649 (Frontiers in Pharmacology, 2021).
pIC50: −log10 of the molar value. Like-named read-outs stand apart in the source and are kept apart here.

Key:
[1] = Caffeine pharmacokinetics in saliva/plasma of untreated human volunteers (baseline); type: in vivo; details: caffeine 200 mg single oral dose
Method: Male human volunteers, between 21 and 30 years old and living in the Metro Vancouver area, were recruited for the study. The volunteers had to meet specific eligibility criteria: not smoking, use medication, consume alcohol heavily or have any health concerns which may affect the test results. […] The participants were also asked to refrain from consuming solid foods 3.0 h prior to the study. The study protocol was approved by the Simon Fraser University Office of Research Ethics with approval number 2012s0565 and registration number ISRCTN83028296.
This study adopted a non-randomized, single-blinded, and crossover design in which each subject acted as their own control ([Sheriffdeen et al., 2019]). […] In the ARFP extract treatment study, the same group of volunteers was used after a 4 days washout period. […] Saliva samples were collected at 0.5, 1.0, 1.5, 2.0, 2.5, 3.0, 4.0, 6.0, 8.0, 12.0, 24.0, 36.0, and 48.0 h post-dosing. All saliva samples were stored in the dark at freezing temperature until they were ready for extraction and HPLC-UV analysis.
The saliva samples were thawed at room temperature, mixed by vortexing for 30 s, and centrifuged for 10 min at 4,000×g. Exactly 200.0 µl aliquot of the saliva sample was removed and spiked with 100.0 µl of the internal standard (ISTD) benzotriazole (50.0 μg/ml). […]
The following pharmacokinetic parameters were determined: the Tmax (time to reach peak plasma level) and Cmax (concentration of peak plasma level) were determined by visual inspection. The AUC0-inf (area under plasma concentration-time curve from zero to infinity) was determined by non-compartmental analysis using the PK Solver software ([Zhang et al., 2010]). The AUC0-inf was determined using the log-linear trapezoidal rule from dosing time to last time point and extrapolated to infinity by dividing the last concentration with the elimination rate constant. The AUC ratio was calculated by dividing the AUC0-inf after ARFP extract pretreatment with the AUC0-inf before ARFP extract pretreatment.

[2] = cited from earlier work
[3] = cited from earlier work; remark: listed apart in the source
[4] = target: ethoxyresorufin-O-deethylase; set-up: method as in Cai et al., 1993; details: mice liver microsomes; ref Cai et al., 1993; cited from earlier work
[5] = target: T1, CYP1A2 (Homo sapiens, UniProt P05177); assay: Caffeine-N-demethylase assay with 14C-caffeine in human liver microsomes, IC50 determination
T1 sequence (P05177 1-516): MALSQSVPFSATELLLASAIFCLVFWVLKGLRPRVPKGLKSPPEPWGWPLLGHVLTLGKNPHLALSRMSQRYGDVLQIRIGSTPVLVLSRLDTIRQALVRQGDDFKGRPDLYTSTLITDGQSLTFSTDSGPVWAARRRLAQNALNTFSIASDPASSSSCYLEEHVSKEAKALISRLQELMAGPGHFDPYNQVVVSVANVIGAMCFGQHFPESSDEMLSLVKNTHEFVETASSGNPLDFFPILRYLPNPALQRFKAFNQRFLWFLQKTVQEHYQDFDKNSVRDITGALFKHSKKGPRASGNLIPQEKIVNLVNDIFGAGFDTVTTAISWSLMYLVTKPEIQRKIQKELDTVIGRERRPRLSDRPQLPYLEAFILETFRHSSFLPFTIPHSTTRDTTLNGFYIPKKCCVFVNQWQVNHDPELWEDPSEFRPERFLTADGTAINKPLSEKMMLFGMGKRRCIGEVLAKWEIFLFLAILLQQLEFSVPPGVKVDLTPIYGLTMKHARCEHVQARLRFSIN
Method: Incubation was conducted at 37°C in a metabolic incubator with a 60 cycles/min shaking rate. At the conclusion of 10 min incubation, the reaction was terminated by the addition of 10% TCA solution (50.0 µl). The incubation mixture was centrifuged at 4,000×g. An aliquot (300.0 µl) of the supernatant was applied to a 3.0 ml Sigma-Aldrich Superclean ENVI-Carbon solid phase extraction (SPE) tube (0.25 g, 80–100 mesh). […] The eluant was collected into a scintillation vial. After the addition of 15.0 ml scintillation cocktail, the radioactivity in the vial was counted in a liquid scintillation counter. The results were expressed as residual counts of the control incubation.
CYP 1A2 activity inhibition was plotted against log furanocoumarin concentration after normalizing the inhibition data from 0–100%. The resulting inhibition-concentration curves were fitted separately to a four-parameter logistic function to determine the IC50 values. Curve fitting was performed using the GraphPad Prism version 5.04 (GraphPad Software, San Diego, CA). The IC50 represented the concentration of the furanocoumarin chemical to evoke a half maximal inhibition of the CYP 1A2 activity.

[6] = target: T1, CYP1A2; assay: Pre-incubation time- and furanocoumarin concentration-dependent inhibition of caffeine metabolism in HLMs; details: for KI: HLMs 1.2 mg/ml, pre-incubation with NADPH, CYP 1A2 inactivation
Method: (§1) In the pre-incubation step, HLMs (1.2 mg/ml) were pre-incubated with different furanocoumarin concentrations in the presence of NADPH for various time periods at 37°C. […] The final incubation volume was 320.0 µl. At the conclusion of a 10 min incubation, the reaction was stopped by the addition of a 10% TCA solution. The incubation mixture was extracted by a SPE tube, and the radioactivity in the eluant was counted in a liquid scintillation counter as described earlier.
(§2) The observed in vitro rate constant (kobs) was calculated using the slopes of linear regression analyses from natural logarithm (Ln) percentage remaining activity against pre-incubation time plots. The maximum inactivation rate constant (kinact) was calculated using the non-linear regression analyses of plots of the inactivator concentrations against kobs values. […] The plotting was performed using the GraphPad Prism version 5.04 (GraphPad Software, San Diego, CA).

[7] = target: T1, CYP1A2
Method: as §1, §2

[8] = rats, cited from earlier work
[9] = target: human CYP 1A2 isozyme; set-up: method as in Kang et al., 2011; details: mechanism-based inhibition; ref Kang et al., 2011; cited from earlier work
[10] = target: 7-ethoxycoumarin deethylase; set-up: method as in Tinel et al., 1987; details: HLMs; ref Tinel et al., 1987; cited from earlier work
[11] = target: benzo(a)pyrene hydroxylase; set-up: method as in Tinel et al., 1987; details: HLMs; ref Tinel et al., 1987; cited from earlier work

With `Cn1c(=O)c2c(ncn2C)n(C)c1=O` [Caffeine, caffeine] the “Tmax UT” value ([1]; plasma (from saliva), untreated volunteers of the study group of that line) was 0.8 h, the Cmax ([1]; male, human, plasma (calculated from saliva concentrations), po, 200 mg, untreated volunteers) was 5100 ng/mL and the AUC(0-inf) ([1]; male, human, plasma (calculated from saliva concentrations), po, 200 mg, untreated volunteers, read-out: AUC0-inf UT) was 33500 to 55800 ng·h/mL. For the same molecule, the AUC ([2]; 12 human volunteers, 167 mg orally, ref Fuhr et al., 1993) was 28500 ± 14900 ng·h/mL, the AUC ([2]; healthy volunteers, 5 mg/kg dose, mean ± SD, ref Kamimori et al., 1995) was 60800 ± 23700 ng·h/mL and the “Time to reach the peak concentration in the blood” value ([2]; single oral dose, ref Tang-Liu et al., 1983) was no more than 1.0 h.
For `COc1c2ccoc2cc2oc(=O)ccc12` [5-MOP, 5-methoxypsoralen], the Tmax ([3]; PUVA patients, ref Shephard et al., 1999) is given as 2.8 ± 0.8 h, the Tmax ([3]; healthy humans, ref Stolk et al., 1981) is given as 3.0 ± 0.6 h and the pIC50 [4] is given as 5.64. The pIC50 [5] was 6.89, the KI [6] was 3730 ± 3660 nM and the kinact ([6]; human, human liver microsomes, probe caffeine (6.4 µM non-labeled + 0.2 µCi 14C-caffeine)) was 0.00583 s⁻¹.
For `COc1c2ccoc2c(OC)c2oc(=O)ccc12` [ISOP, isopimpinellin], the KI [7] is given as 4480 ± 560 nM, the Tmax ([8]; oral dose of C. monnieri herbal product, ref Li et al., 2014) is given as 1.1 ± 0.3 h and the Tmax ([8]; oral dose of Toddalia asiatica herbal product, ref Liu et al., 2012) is given as 1.3 ± 0.3 h. The pIC50 [4] was 5.72, the KI [9] was 1200 nM and the kinact [9] was 0.34 min⁻¹. For the same molecule, the pIC50 [5] was 6.54.
For `COc1c2occc2cc2ccc(=O)oc12` [8-MOP, 8-methoxypsoralen], the pIC50 [10] is given as roughly 4.60, the pIC50 [11] is given as roughly 4.60 and the KI [6] is given as 780 ± 320 nM.
